Assays:
[1] = test system: challenge organisms (SRB isolate, B. subtilis, A. niger, C. albicans, P. aeruginosa/C. albicans); assay: Latex dispersion challenge test, summary over the challenge organisms; format: cell-based; settings: acrylic latex dispersion, additive alone; challenge organisms other than SRB
Description: A test of the antimicrobial efficacy of 1,4-CHDM was performed in a latex dispersion. Test procedures were generally conducted according to those of ASTM D2574-06: Standard Test Method for Resistance of Emulsion Latexes in the Container to Attack by Microorganisms.
An antimicrobial agent-free, acrylic latex dispersion with pH of 7.2, viscosity of 200 cps, and solids content of 49.8% was used as the substrate for microbial challenge testing.
Aliquots of the latex dispersion were distributed in sterile plastic tubes. The volume of latex added was adjusted such that the volume of additives plus the volume of latex would equal 25 mL to produce latex test samples.
The concentration of the additives was adjusted to allow for a final volume of 28 mL per tube after addition of the latex stock cultures discussed in Example 1. All tubes were mixed for 10 minutes on a mechanical shaker set to 75 shakes per minute, and then left stationary at ambient temperature for a minimum of 48 hours.
The bacteria (sulfate-reducing bacteria isolate, Bacillus subtilis, and Pseudomonas aeruginosa), yeast (Candida albicans), and fungi (Aspergillus niger) in Table 6 were used as challenge organisms for testing the antimicrobial efficacy of the test latex samples. Each organism was isolated from previous naturally contaminated samples of paint, latex, or adhesive.
(§1) Bacterial cultures were grown at 35° C.±2° C. for a minimum of 96 hours in liquid media. SRB was grown in a thioglycolate broth. All other bacteria and C. albicans were grown in a Trypticase Soy broth with 1% dextrose. C. albicans cultures were grown at 22° C.±2° C. for a minimum of 96 hours. A. niger was grown on the Sabouraud Dextrose Agar and in the Trypticase Soy broth with 1% dextrose at 22° C. for 7 to 14 days or until full sporulation (in the case of the agar culture) was achieved. Spores from the plate culture of A. niger were dislodged by rubbing the growth gently with a sterile inoculating loop or removing it with a sterile glass impinger. The spores were added into the broth culture, and then the mixture was filtered through sterile nonabsorbent cotton and adjusted to a spore level of 1.0×10^8 using a hemocytometer.
Challenge organisms were initially acclimated to the latex without antimicrobial additives by adding 10% by volume of individual broth culture to latex to yield final concentrations of 10^6-10^7 cfu/mL for each bacterial culture to produce latex stock cultures. The A. niger and C. albicans cultures (or suspension) were first poured through nonabsorbent sterile gauze to remove aggregates then centrifuged. The solids were re-suspended to the desired concentration in latex by estimating the concentration using a hemocytometer. The P. aeruginosa and C. albicans isolates were originally found as a mixed culture in a contaminated product. A mixed latex stock culture containing P. aeruginosa and C. albicans was prepared by adding a portion of the contaminated product to the latex without antimicrobial additives. The latex stock culture samples were incubated at 35° C.±2° C. for bacteria and at 22° C.±2° C. for A. niger and C. albicans. To determine challenge organism concentration, samples of the latex stock cultures were dilution-plated, or for SRB, evaluated using the BACTI-BOTTLE method, as described below.
To the latex test samples, 3 mL of each latex stock culture (diluted as necessary) was added to produce a theoretical 1.0×10^5 to 1.0×10^6 cfu/mL total concentration to yield inoculated latex samples. […]

[2] = test system: challenge organisms (E. coli, Aeromonas sp., SRB isolate, B. subtilis, P. vulgaris, A. niger, C. albicans); assay: Paint challenge test, summary over the challenge organisms; format: cell-based; settings: additive alone at 0.5-5%, all seven challenge organisms
Description: A test of the antimicrobial efficacy of 1,4-CHDM was performed in a paint. Test procedures were generally performed according to those of ASTM D2574-06: Standard Test Method for Resistance of Emulsion Paints in the Container to Attack by Microorganisms.
The paint used for testing was a commercial water-based, interior latex flat wall paint purchased from Wal-Mart. The trade name for the paint was Quik Hide. The color was Off White 26905. A five gallon (18.9 L) container was purchased. The VOC (volatile organic compound) content was listed as <100 g/L (0.8 lbs/gal).
Aliquots of uninoculated paint were distributed in sterile plastic tubes. The volume of paint added was adjusted such that the volume of additives plus the volume of paint would equal 25 mL. […] The percentages shown in Table 2 are weight percentages.
The concentration of the additives in the paint was adjusted to allow for a final volume of 28 mL per tube after addition of inoculum. All tubes were mixed for 10 minutes on a mechanical shaker set to 75 shakes per minute, and then left stationary at ambient temperature for a minimum of 48 hours.
The bacteria (first five in list), yeast (C. albicans) and fungi (A. niger) in Table 3 were used as challenge organisms for testing the antimicrobial efficacy of the additives contained in the test paint samples. Each organism was isolated from previous naturally contaminated samples of paint, latex, or adhesive. The concentration of each organism (colony-forming unit/gram (cfu/g)) in the test paint samples added as inoculum is also given in Table 3.
as §1, with “Agar (SDA)” for “Agar”
Challenge organisms were initially acclimated to the paint without additives by adding 10% by volume of individual broth culture to the paint to yield final concentrations of 10^6-10^7 cfu/mL for each bacterial culture to produce paint stock cultures. The A. niger and C. albicans cultures (or suspension) were first poured through nonabsorbent sterile gauze to remove aggregates, then centrifuged. […]

[3] = Solubility in aqueous growth media; format: physicochemical
Description: Stock solutions were prepared for each isomer in the corresponding growth media at a concentration of 5% w/v (1,4-CHDM) or 2.25% w/v (1,1-CHDM). Serial dilutions were prepared with a dilution ratio of 1:1.3333 such that one log range was covered with nine dilutions.
Final results have been summarized below in Table 9.

| solubility [3] | SMILES | efficacy against challenge organisms in latex [1] | killing of challenge organisms in paint [2] |
| --- | --- | --- | --- |
| – | Cn1sccc1=O [MIT, methylisothiazolinone] | highly efficacious | – |
| – | O=c1[nH]sc2ccccc12 [BIT, benzisothiazolinone] | highly efficacious | – |
| – | OCC1CCC(CO)CC1 (stereo not shown) [1,4-CHDM, 1,4-cyclohexanedimethanol] | significant or complete killing of each challenge organism except SRB | significant or complete killing of each challenge organism |
| 2.25 % (w/v) | OCC1(CO)CCCCC1 [1,1-CHDM, 1,1-cyclohexanedimethanol] | – | – |
| – | OCC1CCCC(CO)C1 (stereo not shown) [1,3-CHDM] | – | little benefit and no observable dose response |
| – | CC(O)CO (stereo not shown) [PG, propylene glycol] | some ability to inhibit and kill the challenge organisms | little benefit and no observable dose response |
| – | CCCCNC(=O)OCC#CI [IPBC, 3-iodo-2-propanyl-n-butylcarbamate] | not found to be efficacious | – |
| – | CC1(C)C(O)C(C)(C)C1O (stereo not shown) [TMCD, 2,2,4,4-tetramethyl-1,3-cyclobutanediol] | – | killed all challenge organisms at the highest level tested |

Source: patent US8106111B2, “Antimicrobial effect of cycloaliphatic diol antimicrobial agents in coating compositions” (Eastman Chemical Company, priority 2009, dated 2012)
